EPA's ToxValDB 9.5
Where “and” joins values, the source holds several entries; their conditions need not be identical. Equal entries are not always repeated.

Key:
Mus musculus = conditions: for LC50: acute
Rattus norvegicus [1] = conditions: for LC50: acute
Rattus norvegicus [2] = conditions: for LOEL / NOEL: Hershberger, duration: 10 days, gavage
Rattus norvegicus [3] = conditions: subchronic, oral
Rattus norvegicus [4] = tested on: Rattus norvegicus
[5] = chronic, duration: 14 weeks, inhalation, B6C3F1
[6] = oral, Sprague-Dawley, active + Negative + Antiandrogenic + anti-androgenic + negative
[7] = uterotrophic, duration: 3 days, injection, subcutaneous, Active
[8] = uterotrophic, duration: 36 days, injection, subcutaneous, Active
[9] = short-term, duration: 3 days, injection, subcutaneous, F, Crj:CD, uterus: uterine dry weight (absolute) + uterus: uterine dry weight (relative) + uterus: uterine wet weight (absolute) + uterus: uterine wet …
[10] = short-term, duration: 28 days, oral, gavage, F, Crl:CD(SD), A/G ratio + phospholipid + triglyceride
[11] = short-term, duration: 28 days, oral, gavage, F, Crl:CD(SD), cholinesterase + inorganic phosphorus + kidney: abnormal kidney histopathological changes
[12] = short-term, duration: 28 days, oral, gavage, F, Crl:CD(SD), uterus: uterine dry weight (absolute) + uterus: uterine dry weight (relative) + uterus: uterine wet weight (absolute) + uterus: uterine wet …
[13] = short-term, duration: 28 days, oral, gavage, M, Crl:CD(SD), alanine aminotransferase + body weight + brain: brain weight + gamma-glutamyl transpeptidase + heart: heart weight + hematocrit + kidney: …
[14] = short-term, duration: 28 days, oral, gavage, M, Crl:CD(SD), heart: heart weight
[15] = oral, Wistar, active + Negative + Antiandrogenic + anti-androgenic

Molecule `C=CC=C` [1,3-Butadiene] has an LOAEL (Mus musculus; [5]) of 5530 mg/m3, an NOAEL (Mus musculus; [5]) of 2770 mg/m3 and an NOAEL (Mus musculus; reproduction developmental, duration: 5 days, inhalation, M, B6C3F1) of 442 mg/m3. The NOAEL (Mus musculus; reproduction developmental, duration: 10 days, inhalation, CD1, generation: F1) was 88.5 mg/m3, the LOAEL (Rattus norvegicus [1]; repeat dose other, inhalation, Sprague-Dawley) was > 17700 mg/m3 and 17700 mg/m3 and the NOAEL (Rattus norvegicus [1]; reproduction developmental, duration: 10 days, inhalation, Sprague-Dawley, generation: F1) was 2210 mg/m3. For the same molecule, the LOAEL (Rattus norvegicus [1]; reproduction developmental, inhalation, Sprague-Dawley) was 3320 mg/m3 and the NOAEL (Rattus norvegicus [1]; reproduction developmental, inhalation, Sprague-Dawley, generation: F0) was 664 mg/m3.
`N#Cc1c(Cl)cccc1Cl` [2,6-Dichlorobenzonitrile] showed an LOEL (Rattus norvegicus [2]; [6]) of 150 mg/kg-day and an NOEL (Rattus norvegicus [2]; [6]) of 60 mg/kg-day.
For `COc1ccc(C(=O)c2ccccc2)c(O)c1` [2-Hydroxy-4-methoxybenzophenone], the LEL (Rattus norvegicus [2]; uterotrophic, duration: 4 days, oral, diet, Active) was 1520 mg/kg-day, the NOEL (Rattus norvegicus [3]; diet, F, Fischer 344, Body Weight Changes: decrease + Food Consumption: decrease + Hematology: Hgb decrease, Plt increase + Blood Chemistry: gamma-GTP increase, …) was < 196 mg/kg-day and the NOEL (Rattus norvegicus [3]; diet, M/F, Fischer 344, Body Weight Changes: decrease + Food Consumption: decrease + Hematology: Hgb decrease, Plt increase + Blood Chemistry: gamma-GTP increase, …) was < 300 mg/kg-day.
With `CC(C)(C)c1ccc(O)cc1` [4-(1,1-Dimethylethyl)phenol] the LEL (Rattus norvegicus [2]; [7]) was 100 mg/kg-day and 99.2 mg/kg-day and the LOAEL (Rattus norvegicus [1]; short-term, duration: 14 days, oral, gavage, Crj:CD) was 250 mg/kg-day.
Work on `C[C@]12CCC(=O)C=C1CC[C@@H]1[C@@H]2CC[C@]2(C)C(=O)CC[C@@H]12` [4-Androstene-3,17-dione] yielded an LEL (Rattus norvegicus [2]; [7]) of 5 mg/day, an LEL (Rattus norvegicus [2]; uterotrophic, duration: 7 days, injection, subcutaneous, Active) of 5 mg/kg-day and an LEL (Rattus norvegicus [2]; uterotrophic, duration: 14 days, injection, subcutaneous, Active) of 2 mg/day. The LEL (Rattus norvegicus [2]; [8]) was 1 mg/kg-day.
`CCCCCCCCCCCCc1ccc(O)cc1` [4-Dodecylphenol] was tested, and the LEL (Rattus norvegicus [2]; [7]) was 40 mg/kg-day and 39.7 mg/kg-day.
`Cc1c(O)ccc2c1CC[C@@H]1[C@@H]2CC[C@]2(C)[C@@H](O)CC[C@@H]12` [4-Methylestradiol] showed an LEL (Rattus norvegicus [2]; [7]) of 0.005 mg/day.
With `C#C[C@@]1(OC(=O)CC)C[C@@H]2CC[C@@H]3[C@H](CC[C@@]4(C)[C@H]3CC[C@]4(C#C)OC(=O)CC)[C@@]2(C)C1` [Anordrin] the LEL (Rattus norvegicus [2]; uterotrophic, duration: 3 days, oral, Active) was 0.0025 mg/day.
Work on `Oc1ccc(C2(c3ccc(O)cc3)CCCCC2)cc1` [Bisphenol Z] yielded an NOEL (Rattus norvegicus [3]; gavage, M, Sprague-Dawley, Clinical Observation: Diarrhea Soft feces + Body Weight Changes: decrease, R + Food Consumption: decrease + Urinalysis: Urine volume …) of 20 mg/kg-day, an LOEL (Rattus norvegicus [4]; [9]) of 30 mg/kg-day and an NOEL (Rattus norvegicus [4]; [9]) of 6 mg/kg-day. It also gave an LOEL (Rattus norvegicus [4]; [10]) of 100 mg/kg-day, an NOEL (Rattus norvegicus [4]; [10]) of 30 mg/kg-day and an LOEL (Rattus norvegicus [4]; [11]) of 300 mg/kg-day. It also gave an NOEL (Rattus norvegicus [4]; [11]) of 100 mg/kg-day, an LOEL (Rattus norvegicus [4]; [12]) of 30 mg/kg-day and an NOEL (Rattus norvegicus [4]; [12]) of 6 mg/kg-day. It also gave an LOEL (Rattus norvegicus [4]; [13]) of 300 mg/kg-day, an NOEL (Rattus norvegicus [4]; [13]) of 100 mg/kg-day and an LOEL (Rattus norvegicus [4]; [14]) of 100 mg/kg-day. For the same molecule, the NOEL (Rattus norvegicus [4]; [14]) was 30 mg/kg-day and the LOEL (Rattus norvegicus [4]; short-term, duration: 28 days, oral, gavage, M, Crl:CD(SD), thymus: serum T4) was 30 mg/kg-day.
With `CCBr` [Bromoethane] the LC50 (Mus musculus; inhalation, B6C3F1) was 12100 mg/m3, the LC50 (Mus musculus; inhalation, CF1) was 72200 mg/m3 and the NOAEL (Mus musculus; short-term, duration: 14 days, inhalation, B6C3F1) was 2230 mg/m3. It also gave an LC50 (Rattus norvegicus [1]; inhalation, Fischer 344) of 20900 mg/m3, an LC50 (Rattus norvegicus [1]; inhalation, Sprague-Dawley) of 120000 mg/m3 and an NOAEL (Rattus norvegicus [1]; chronic, duration: 14 weeks, inhalation, Fischer 344) of 1780 mg/m3. The NOAEL (Rattus norvegicus [1]; short-term, duration: 14 days, inhalation, Fischer 344) was 2230 mg/m3.
With `[Cl-].[Cl-].[Co+2]` [Cobalt chloride] the NOAEL (Mus musculus; developmental, duration: 5 days, oral, gavage, ICR) was 180 mg/kg-day and the LOAEL (Rattus norvegicus [1]; chronic, duration: 150 days, oral, gavage) was 4 mg/kg-day.
For `C[C@]12CC[C@H](O)CC1=CC[C@@H]1[C@@H]2CC[C@]2(C)C(=O)CC[C@@H]12` [Dehydroepiandrosterone], the LEL (Rattus norvegicus [2]; [7]) was 6 mg, the “LEL (mg/100 g BW)” value (Rattus norvegicus [2]; [7]) was 0.6 and the LEL (Rattus norvegicus [2]; uterotrophic, duration: 21 days, Active) was 1 mg/day. It also gave an LEL (Rattus norvegicus [2]; uterotrophic, duration: 28 days, oral, diet, Active) of 2000 mg/kg-day and an LEL (Rattus norvegicus [2]; [8]) of 30 mg/kg-day.
Molecule `CCCCCOC(=O)c1ccccc1C(=O)OCCCCC` [Dipentyl phthalate] has an LOEL (Rattus norvegicus [2]; [15]) of 1000 mg/kg-day, an NOEL (Rattus norvegicus [2]; [15]) of 200 mg/kg-day and an NOEL (Rattus norvegicus [4]; developmental, oral, gavage, M, Sprague-Dawley, generation: F1, F1: Testosterone (Testes) production) of 50 mg/kg-day.
